Measurements: patent US20170016062A1, “SEQUENCING METHODS AND KITS” (NEW YORK UNIVERSITY, priority 2015, published 2017)

Key:
[1] = test system: MG1655 E. coli (rpoB and mrcA regions of interest); assay: Maximum-Depth Sequencing (MDS) of mutation rates in E. coli grown with sub-inhibitory antibiotic doses; type: cell-based, Escherichia coli; settings: for rate of transition mutations in rpoB: wild-type MG1655, aerobic, 1 μL/mL ampicillin or 15 ng/mL norfloxacin
Protocol: E. coli were streaked onto Luria-Bertani (LB) Agar from freezer stocks and grown at 30° C. for 24 hours. According to plating and colony-forming unit (CFU) counting, the average number of cells in such colonies is 3×10^8 (thus the number of generations is […]. Bacteria from a single colony were used to inoculate a small liquid culture (1 ml LB broth in a round-bottom tube). For the purposes of generation counting, it is assumed that after the transition to growing in liquid, growth occurs for only ˜3 generations, since the number of bacteria in the colony is roughly equal to the carrying capacity of the broth. The culture was grown for 12 hours on a 37° C. shaker.
4 μL (˜10^7 bacteria) were transferred to a fresh 100 mL LB liquid culture (in a 250 mL Erlenmeyer flask). Liquid cultures were grown for 24 hours on a 37° C. shaker, to a density of 2.5×10^9 bacteria according to cell counts (for a total of 2.5×10^11 bacteria). This process was performed 9 times. The average number of generations a bacterium would have grown in each liquid culture is
Four biological replicates of each condition were grown. All liquid cultures, including the small founding culture, had the possible addition of 1 μL/mL ampicillin or 15 ng/mL norfloxacin. […] The fact that most of the “interrelatedness” between bacteria sampled at the end of the culture is important for the way mutation rate is calculated.
MG1655 E. coli were used as wild-type cells for all experiments. The tet-regulated mrcA strain MG1655(CmR::Ptet-mrcA SpR::tetR) was prepared according to Lutz, R.; Bujard, H. (1997) Independent and tight regulation of transcriptional units in Escherichia coli via the LacR/O and the TetR/O and AraC/I1-I2 regulatory elements. Nucleic Acids Research. 25(6):1203-10. […] PNAS 111(20):E2100-E2109, doi: 10.1073/pnas.1201876111. Mutant strains were induced with anhydrous tetracycline at 50 ng/ml. In the mutS knockout strain, MG1655 mutS was replaced with a kanamycin resistance cassette.
0. Restriction digest. a. Incubate 1 μg DNA in 50 μL 1× restriction enzyme buffer with the appropriate amount of restriction enzyme. For this study, 1 unit XmnI was used. Samples were incubated at 37° C. overnight. b. Deactivate restriction enzyme. For XmnI, samples were heated at 65° C. for 20 minutes. 1. 1 cycle PCR with adapter-barcode-primer a. Prepare 50 μL PCR reaction mix using adapter-barcode-primer and 12.5 μL of the sample above (250 ng DNA) b. PCR, 1 cycle: 98° C. 1 min, 60° C. 15 sec, 72° C. 1 min 2. Remove unused barcodes a. Immediately add 1 μL exonuclease I+5 μL buffer. b. Incubate at 37° C. for 1 hr, then 80° C. for 20 min c. Clean sample using PCR purification kit 3. Linear amplification using forward adapter amplifier primers a. Add cleaned DNA to fresh 50 μL reaction mix with forward adapter amplifier primer. b. PCR, 12 cycles: 98° C. 15 sec, 61° C. 15 sec, 72° C. 5 sec Note: The number of linear amplification cycles is limited by off-target amplification.
a. Add adapter-reverse-primer and reverse adapter amplifier primers. b. PCR, 15 cycles: 98° C. 15 sec, 61° C. 15 sec, 72° C. 5 sec 5. Purify with Ampure XP beads Optional: If using multiple samples with phased barcodes, combine DNA first in equimolar concentrations. For this study, quantification at this step was done using TapeStation. 6. Sequence. HiSeq Rapid Run, 150 bp, Paired-End.
After grouping by barcode, sequences were aligned using the forward and reverse [primer] sequences for mrcA and rpoB above. Samples were indexed according to phase. Consensus bases, including indels, are called only when all bases at a given position and barcode have 100% agreement.
Mutation rates in the assay are chosen to maximize the likelihood of recovering the mean mutant frequency for substitutions of a given type X->Y, which occur a Poisson process over a certain number of generations (in this case 113). […]

[2] = test system: E. coli; assay: Fluctuation assay of mutation rate with sub-inhibitory antibiotic doses; type: cell-based, Escherichia coli
From the text: The effect of sub-inhibitory doses of antibiotics of different classes on mutation rate was investigated using both MDS and detailed fluctuation assays as performed in Garibyan, L. et al. (2003). DNA Repair. 2(5):593-608; and Lang, G. I.; et al. (2008). Genetics 178(1):67-82.

Row | SMILES | mutation rate in cells overexpressing catalase ([1]; MDS, catalase overexpression mutant, lower basal rate) | transversions and indel formation in mrcA ([1]; MDS, mrcA) | rate of transition mutations in rpoB ([1]; MDS) | transition rate, anaerobic conditions ([1]; cells grown in anaerobic conditions) | transition substitution rate in rpoB, fluctuation assays [2] | rate of >1 bp indel formation in both mrcA and rpoB ([1]; MDS, 15 ng/mL norfloxacin)
1 | CC1(C)S[C@@H]2[C@H](NC(=O)[C@H](N)c3ccccc3)C(=O)N2[C@H]1C(=O)O [ampicillin] | did not increase this lower rate | increased transversions and indel formation in mrcA | increase in the rate of transition mutations in rpoB | did not display an increase in transition rate |  | 
2 | CCn1cc(C(=O)O)c(=O)c2cc(F)c(N3CCNCC3)cc21 [norfloxacin] |  |  | increased the transition substitution rate in rpoB |  | this increase was only seen in cells that were grown to stationary phase | increased the rate of >1 bp indel formation in both mrcA and rpoB
